Assay results from patent US20260232653A1, “USE OF CONDENSED AZACYCLE COMPOUNDS FOR THE TREATMENT OF LYSOSOMAL STORAGE DISORDERS” (Minerva Neurosciences, Inc., priority 2023, published 2026).

Legend:
[1] = molecular target: sigma 2/transmembrane protein 97 ("TMEM97") receptors (Homo sapiens, UniProt Q5BJF2); conditions: antagonist of the sigma receptor; known in the art; cited from earlier work
NPC1 protein = test: Effect on NPC1 protein levels, Western blot densitometry in I1061T fibroblasts; format: cell-based; conditions: 0.3, 1 and 3 μM, 24 h, 48 h, 72 h, versus vehicle (FIGS. 1B-1D)
Procedure: (§1) Healthy and I1061T fibroblasts (Coriell Institute Camden USA, cod. GM05659 (Healthy) and GM18453 (11061T)) were grown in air containing 5% CO2 in Dulbecco's Modified Eagle Medium (DMEM) medium, containing 10% v/v fetal calf serum, 2 mM L-glutamine, 0.1 mg/mL gentamicin, and 100 U/mL penicillin. Cells were passaged every 3 days.
1.5 mg of each of the compounds were weighed, dissolved in the proper solvent to reach a 3 mM concentration, kept at 4° C., and used within 15 days. The dilutions for the treatment were carried out in order to administer a 1:1000 volume. Specifically, 2 μL in 2 mL medium was administered. Ctr was made with DMSO.
Cells were washed twice in phosphate buffer saline (PBS), harvested with 1% v/v trypsin, and pelleted by centrifugation. Pellets were re-suspended in PBS containing 0.1 M sucrose, 0.05 M KCl, 0.04 M KH2PO4, 30 mM EDTA, pH 7.4, and sonicated. The protein concentration was determined by the Lowry method.
Samples were solubilized in 0.25 mM Tris-HCl, (pH 6.8) containing 20% (w/v) SDS, protease inhibitor cocktail (Merck #PIC0002), then boiled for 2 minutes. […]

I1061T fibroblasts = test: LysoTracker cytofluorimetric analysis of lysosomal size; format: cell-based; conditions: after 48 hours, particularly at 0.3 μM (FIG. 3)
Procedure: as §1
Healthy and I1061T fibroblasts were cultured as in Example 1. To evaluate the effect of Compound No. 10 on lysosomal size, cells were treated with either 300 μM beta-cyclodextrin (CD), 2.5 μM Rim, 0.3 μM Compound No. 10 (CB), 1 μM Compound No. 10, 3 μM Compound No. 10, or vehicle control (ctr) for 72 hours. Following treatment, cytofluorimetric assays using Lysotracker™ (Life Technology #L7528) fluorescence as a tool was used and performed according to the manufacturer's instructions. LysoTracker™ provides fluorescence detection for live-cell staining of acidic environments and can be used for labeling and tracing acidic organelles such as lysosomes. Stained and unstained cells were analyzed by Cytofluorimeter CytoFLEX (Beckman Coulter). Data provided are the ratio of geometric (geo) mean of LysoTracker™ levels in stained divided by unstained samples, collected at 24 hours (FIG. 3, left), 48 hours (FIG. 3, middle), and 72 hours (FIG. 3, right).

[2] = tested on: mouse model of Niemann-Pick Disease, Type C; conditions: WO 2014/022841; cited from earlier work

Sequence of sigma 2/transmembrane protein 97 ("TMEM97") receptors (Q5BJF2 whole entry, species assumed): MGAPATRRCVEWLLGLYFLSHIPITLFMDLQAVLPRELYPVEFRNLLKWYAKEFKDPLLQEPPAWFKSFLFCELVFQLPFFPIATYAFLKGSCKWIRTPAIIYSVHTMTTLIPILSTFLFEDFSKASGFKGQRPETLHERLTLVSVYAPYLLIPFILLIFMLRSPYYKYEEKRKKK

## C[C@@H]1CN(CCCn2c3ccccc3c3ccccc32)C[C@H](C)N1 [Rimcazole, 9-[3-(3,5-cis-dimethylpiperazino)propyl]-carbazole]
[1]
  IC50: 386 nM

## CC1(C)CCN(C2CCCC2)Cc2cc(-c3ccc(C(F)(F)F)cc3)ccc21 [Compound No. 10, 2-cyclopentyl-5,5-dimethyl-8-(4-(trifluoromethyl)phenyl)-2,3,4,5-tetrahydro-1H-benzo[c]azepine]
NPC1 protein
  effect on NPC1 protein expression: did not have a statistically significant effect
I1061T fibroblasts
  fluorescence of the lysosomes (Lysotracker geo mean ratio), representing lysosomal size: increase

## OC[C@H]1O[C@@H]2O[C@H]3[C@H](O)[C@@H](O)[C@@H](O[C@H]4[C@H](O)[C@@H](O)[C@@H](O[C@H]5[C@H](O)[C@@H](O)[C@@H](O[C@H]6[C@H](O)[C@@H](O)[C@@H](O[C@H]7[C@H](O)[C@@H](O)[C@@H](O[C@H]8[C@H](O)[C@@H](O)[C@@H](O[C@H]1[C@H](O)[C@H]2O)O[C@@H]8CO)O[C@@H]7CO)O[C@@H]6CO)O[C@@H]5CO)O[C@@H]4CO)O[C@@H]3CO [beta-cyclodextrin]
[2]
  cholesterol accumulation: reduced
  neuronal cell loss: reduced
